# Data published in patent publication US9975868B2, “7,8-dihydoxyflavone and 7,8-substituted flavone derivatives, compositions, and methods related thereto” (EMORY UNIVERSITY, priority 2012, dated 2018).
# Entries after “also recorded” stand apart in the source; their conditions may differ.
# Legend:
# [1] = brain 7,8-DHF concentration after oral administration; type: in vivo, mice
# [2] = in vivo PK study, plasma 7,8-DHF after oral administration; parameters: species or system mice
# Description: Two months old mice were orally administrated 78 mg/kg of the R7, and mice were sacrificed at different time points (n=3), the plasma was then harvested and analyzed by HPLC/MS.
# Derivatives with various moieties on the catechol group in 7,8-DHF were synthesized. These derivatives were monitored for intestine microsomal stability, liver microsomal stability and plasma stability.
# [3] = test system: mouse model of Alzheimer's disease; conditions: cited from earlier work
# [4] = chemical stability in pH 1.2 and 7.4 buffer; type: physicochemical
# Description: Metabolism studies indicate that the catechol group is conjugated by glucuronidation, sulfation and methylation in liver, which leads to the poor oral bioavailability upon oral administration. […] Most of 7,8-DHF is conjugated and metabolized within 30 min. Derivatives with various moieties on the catechol group in 7,8-DHF were synthesized. These derivatives were monitored for intestine microsomal stability, liver microsomal stability and plasma stability. In addition, compounds with favorable chemical stability and Caco-2 permeability were examined.
# R7 and R13 were chosen to analyze their in vivo PK profiles. The concentration of 7,8-DHF's in brain was examined at different time points after oral administrated 72.5 mg/kg, which is the molecular equivalent of 50 mg/kg of 7,8-DHF. In plasma, 7,8-DHF peaked at around 100 min for R13, whereas administration of the parent compound 7,8-DHF, occurred at 10 min. The oral bioavailability of R13 was around 10%.
# [5] = molecular target: T1, TrkB (Mus musculus, UniProt P15209); assay: TrkB signaling in mouse brain by immunoblotting after oral administration; type: in vivo; conditions: R7 78 mg/kg oral
# T1 construct: from tissue; host or cells: mouse brain (lysates after oral dosing)
# Description: R7 (78 mg/kg equal to about 50 mg/kg of 7,8-DHF) was administered orally. The mice were sacrificed at different intervals. The brain lysates were analyzed by immunobotting with various antibodies including p-TrkB 816, Total TrkB, p-Akt and total Akt.
# The TrkB signaling in mouse brains was monitored from the in vivo PK study. […] The pharmacodynamic (PD) study fits well with the in vivo PK data, underscoring that the released 7,8-DHF from R7 triggers the long-lasting TrkB signalings in mouse brain.
# T1 sequence (P15209 32-821): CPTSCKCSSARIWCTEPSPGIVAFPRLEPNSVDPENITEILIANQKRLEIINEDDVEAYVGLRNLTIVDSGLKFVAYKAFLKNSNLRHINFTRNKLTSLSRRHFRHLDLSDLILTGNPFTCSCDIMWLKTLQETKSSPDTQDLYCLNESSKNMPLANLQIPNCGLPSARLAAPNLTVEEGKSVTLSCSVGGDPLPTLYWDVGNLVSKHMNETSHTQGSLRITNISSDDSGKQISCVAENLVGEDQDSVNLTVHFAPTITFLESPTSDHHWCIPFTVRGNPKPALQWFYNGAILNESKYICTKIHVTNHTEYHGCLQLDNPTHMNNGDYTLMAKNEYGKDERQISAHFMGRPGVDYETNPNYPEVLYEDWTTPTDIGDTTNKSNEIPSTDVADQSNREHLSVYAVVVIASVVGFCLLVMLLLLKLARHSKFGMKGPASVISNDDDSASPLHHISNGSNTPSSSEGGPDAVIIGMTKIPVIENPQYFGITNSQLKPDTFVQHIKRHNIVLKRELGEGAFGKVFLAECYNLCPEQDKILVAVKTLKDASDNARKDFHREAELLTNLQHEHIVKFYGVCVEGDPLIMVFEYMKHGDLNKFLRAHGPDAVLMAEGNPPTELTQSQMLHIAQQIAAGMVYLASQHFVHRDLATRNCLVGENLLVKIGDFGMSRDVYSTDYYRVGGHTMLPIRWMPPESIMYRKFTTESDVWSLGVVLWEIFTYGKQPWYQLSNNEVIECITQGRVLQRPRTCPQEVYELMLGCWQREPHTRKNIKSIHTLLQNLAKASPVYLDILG
smiles,measurement,setting,value
"CNC(=O)Oc1ccc2c(=O)cc(-c3ccccc3)oc2c1OC(=O)NC [R13, 4-oxo-2-phenyl-4H-chromene-7,8-diyl bis(methylcarbamate)]","7,8-DHF oral bioavailability and brain concentrations versus parent compound","[1]; FIG. 4, oral administration",improves
same,"7,8-DHF brain availability",[1]; oral 72.5 mg/kg,significantly elongated
"O=c1cc(-c2ccccc2)oc2c(O)c(O)ccc12 [7,8-DHF, 7,8-dihydroxyflavone, reference compound]",time within which most is conjugated and metabolized,"[2]; C57BL6, mouse, in vivo",≤ 30 min
same,bioavailability,"[2]; C57BL6, mouse, in vivo, po",~5%
same,"7,8-DHF detectability in brain",[1]; oral administration of parent compound,not detectable after 4 h
same,memory deficits and BACE1 elevation,[3],reverses
"CN(C)C(=O)Oc1ccc2c(=O)cc(-c3ccccc3)oc2c1OC(=O)N(C)C [R7, 4-oxo-2-phenyl-4H-chromene-7,8-diyl bis(dimethylcarbamate)]","7,8-DHF plasma concentrations compared with parent compound","[2]; R7 78 mg/kg vs 7,8-DHF 50 mg/kg P.O.",higher than parent compound
same,"7,8-DHF detectable in plasma",[2]; at 8 h after oral R7,detectable
same,chemical stability in buffer,[4]; pH 1.2,stable
same,chemical stability in buffer,[4]; pH 7.4,stable
same,TrkB activation (p-TrkB) in mouse brain,[5],potently activated; also recorded: triggers TrkB activation
same,downstream p-Akt signaling activation in mouse brain,[5],potently activated; also recorded: downstream Akt signaling activation
